{"source": "paper PMC11253633", "about": "“Robust leishmanicidal upshot of some new diphenyl triazine-based molecules” (RSC Advances, 2024)", "key": {"promastigote": {"tested_on": "promastigote", "design": "method as in PMID 29702355", "conditions": "read-out: IC50 against promastigote; cited from earlier work"}, "amastigote": {"tested_on": "amastigote", "design": "method as in PMID 29702355", "conditions": "read-out: IC50 against amastigote; cited from earlier work"}, "L. infantum": {"tested_on": "L. infantum", "design": "method as in PMID 30817917", "conditions": "cited from earlier work"}, "L. amazonensis": {"tested_on": "L. amazonensis", "design": "method as in PMID 30817917", "conditions": "cited from earlier work"}, "[1]": {"tested_on": "L. donovani promastigotes", "experiment": "Anti-leishmanial screening against L. donovani promastigotes at a single concentration (MTT)", "format": "cell-based, Leishmania donovani", "conditions": "72 h at 26 °C, MTT; for % Inhibition of L. donovani promastigotes: 100 μM; for inhibition at 100 µM: Leishmania donovani, 72 h", "description": "Each candidate was evaluated for its in vitro activity against reference strain (MHOM/IN/83/AG83) of extracellular promastigotes and intracellular amastigotes of L. donovani.\nPromastigotes were routinely cultured at 26 °C in medium M199 supplemented with 10% heat inactivated fetal bovine serum (FBS, Gibco Laboratories, Mumbai, India), penicillin 100 (IU mL^−1), streptomycin (100 μg mL^−1). Log phase promastigotes were sub-cultured every 72–96 h, the inoculum being 2 × 10^6 cells per mL.[29]\nThe triazin hybrids series was evaluated for their antileishmanial ability against L. donovani promastigotes in vitro. Promastigotes of L. donovani (1× 10^6 cells per mL) in M199 medium were incubated at 26 °C for 72 h with each compound at a concentration of 100 μM. Miltefosine (MTF) was used as a reference drug, 0.2% DMSO as solvent control. Parasites with media alone were taken as control. Parasite viability was achieved by MTT assay after 72 h (Sharma et al. 2023).[30]"}, "[2]": {"tested_on": "L. donovani promastigotes", "experiment": "Dose-dependent anti-promastigote activity and determination of IC50 (MTT)", "format": "cell-based", "conditions": "Leishmania donovani, 72 h, 3 days at 26 °C", "method": "MTF was used as a standard antileishmanial drug control. The cell viability was evaluated (by MTT Assay) and the mean percentage viability was calculated as follows: Mean cell number of treated parasites/mean cell number of untreated parasites × 100. The 50 and 90% inhibitory concentration (IC50) i.e., the concentration of drugs that decreased the cell growth by 50 and 90% respectively, was determined by graphical extrapolation after plotting the graph of percentage viability vs. concentration of the drug.[31]\nParasite viability was not affected by DMSO (0.2%, data not shown) used as solvent control.[33]"}, "L. donovani amastigotes": {"tested_on": "L. donovani amastigotes", "experiment": "Anti-amastigote assay in infected THP-1 macrophages (Giemsa)", "format": "cell-based, Leishmania donovani", "conditions": "for Inhibitory activity against amastigotes (in words): 100–6.25 μM, infected macrophages; for IC50: infected THP-1 macrophages, 72 h", "method": "To evaluate the anti-leishmanial effect of the compound T4 and T7 on intracellular L. donovani parasites, macrophage was infected with stationary -phase L. donovani for 6 h. The cells were then washed with saline to remove any non-internalised parasites. To assess the effect of compounds T4 and T7 on intracellular parasites at early stages of infection, macrophages were subsequently treated with T4 and T7 at concentrations of 100, 50, 25, 12.5, or 6.25 μM (refer to Table 3 and Fig. 7) for 6, 24, or 48 hours.\nTHP-1 cells (5 × 10^5 cells per mL) were cultivated in RPMI-1640 media (Roswell Park Memorial Institute 1640) (Sigma-Aldrich, USA), supplemented with 10% fetal calf serum and maintained at 37 °C with 5% CO2 using phorbol ester as the inducer. These cells were added on circular coverslips (1 × 10^6 cells per mL). Promastigotes of L. donovani were introduced at 1 : 20 ratio. Treatment of the samples was carried out at doses of 100, 50, 25, 12.5, 6.25 and 3.125 μM/72 h. After being taken off, the coverslips were stained with Giemsa. The rate of macrophage infection was then ascertained."}, "[3]": {"tested_on": "Human macrophage THP-1 cell line", "experiment": "Cytotoxicity assay on THP-1 cell line (MTT)", "format": "cell-based", "conditions": "3.125–100 μM", "method": "The cell lines were incubated for 48 h at 37 °C in a CO2 incubator with increasing concentrations of test compounds and viability was ascertained. Each point or bar corresponds to the mean ± SEM of triplicate samples and is representative of one of three independent experiments.\nTHP-1 human monocytic cells were grown at 37 °C in medium RPMI-1640 (pH 7.4, Sigma-Aldrich, St. Louis, MO, USA) supplemented with 10% heat-inactivated FBS for 48 to 72 h in a humidified atmosphere of 5% CO2 and sub-cultured in fresh RPMI-1640 medium at an average density 2 × 10^5 cells per mL (Sharma et al. 2023).[30]\nHuman macrophage THP-1 cell line of 0.5 × 10^6 cells per mL seeded in RPMI-1640 medium (Sigma-Aldrich, USA) supplemented with 10% FBS (GIBCO) in presence of 5% CO2 at 37 °C in triplicate in 96 well culture plate. The cells were treated with two-fold serially diluted concentrations (100–3.125 μM) of the candidate molecules for 72 h. The IC50 was calculated using MTT assay (Sharma et al. 2023).[30]"}, "[4]": {"tested_on": "L. donovani promastigotes", "experiment": "Determination of promastigote cellular morphology (light microscopy)", "format": "cell-based, Leishmania donovani", "conditions": "25, 50 and 100 μM, 72 h, light microscopy 40×", "method": "For the evident of morphological changes, the promastigotes (Fig. 3 (C to L)) were incubated in presence of compound T7, T4 and control Ampho B with the different concentration 25 μM, 50 μM, 100 μM shown in (Fig. 3C to L) were analysed by light microscopy (40×magnification) compared to untreated cells (Fig. 4A).\nFig. 4 Morphological Analysis of promastigote stage cells treated with compound T4 and MTF, compared to the untreated control (A) and DMSO treated control (B). Exponential-phase promastigotes (1 × 10^6 cells per mL) were incubated with 25 μm, 50 μm and 100 μm and analysed by light microscopy (40× magnification). (A) Untreated control (B) DMSO Treated cells (C–E) Ampho B, (F–H) T4 and T7 (I–K) at 25, 50, and 100 μM respectively. Scale bar in all is 10 μm.\nVariations in the cellular morphology of Leishmania parasites due to the treatment with compounds T4 and T7 was detected microscopically. Briefly, the promastigotes (1× 10^6 cells per mL) were incubated in the absence or presence of test compounds and MTF and AmphoB for 72 h with different concentrations and observed under 40× objective of a phase-contrast microscope. […] Data were recorded by using NIS-Elements imaging software.[32]"}}, "note": "Entries after “also recorded” stand apart in the source; their conditions may differ."}
{"smiles": "Clc1cc(Cl)ncn1", "note": "[compound 5]", "values": [{"measurement": "IC50", "setting": "promastigote", "value": "< 25", "unit": "µM"}, {"measurement": "IC50", "setting": "amastigote", "value": "< 25", "unit": "µM"}]}
{"smiles": "CN(C)c1ccnc2cc(Cl)ccc12", "note": "[7-chloro-N, N-dimethylquinolin-4-amine]", "values": [{"measurement": "selectivity index against the axenic amastigotes", "setting": "L. infantum; L. infantum axenic amastigotes", "value": 137.6}, {"measurement": "selectivity index against the promastigotes", "setting": "L. infantum; L. infantum promastigotes", "value": 154.6}, {"measurement": "selectivity index against the axenic amastigotes", "setting": "L. amazonensis; L. amazonensis axenic amastigotes", "value": 74.3}, {"measurement": "selectivity index against the promastigotes", "setting": "L. amazonensis; L. amazonensis promastigotes", "value": 86.4}]}
{"smiles": "COc1ccc(C(=O)CCSc2nnc(-c3ccccc3)c(-c3ccccc3)n2)cc1OC", "note": "[T4, 1-(3,4-Dimethoxyphenyl)-3-((5,6-diphenyl-1,2,4-triazin-3-yl)thio)propan-1-one]", "values": [{"measurement": "% Inhibition of L. donovani promastigotes", "setting": "[1]", "value": 99.67, "unit": "%"}, {"measurement": "inhibition at 100 µM", "setting": "[1]", "value": "> 90", "unit": "%"}, {"measurement": "IC50", "setting": "[2]", "value": 1.07, "unit": "µM"}, {"measurement": "Percentage reduction of parasites (amastigote)", "setting": "L. donovani amastigotes; 6.25 μM", "value": 66, "unit": "%"}, {"measurement": "Percentage reduction of parasites (amastigote)", "setting": "L. donovani amastigotes; 12.5 μM", "value": 68.80, "unit": "%"}, {"measurement": "Percentage reduction of parasites (amastigote)", "setting": "L. donovani amastigotes; 25 μM", "value": 70, "unit": "%"}, {"measurement": "Percentage reduction of parasites (amastigote)", "setting": "L. donovani amastigotes; 50 μM", "value": 74, "unit": "%"}, {"measurement": "Percentage reduction of parasites (amastigote)", "setting": "L. donovani amastigotes; 100 μM", "value": 78.0, "unit": "%"}, {"measurement": "Inhibitory activity against amastigotes (in words)", "setting": "L. donovani amastigotes", "value": "good inhibitory activity; also recorded: capable of inhibiting the growth"}, {"measurement": "IC50", "setting": "L. donovani amastigotes; Leishmania donovani, THP-1, 72 h", "value": 5.18, "unit": "µM"}, {"measurement": "IC50", "setting": "L. donovani amastigotes", "value": 7.19, "unit": "µM"}, {"measurement": "Cytotoxicity on THP-1 human macrophages (in words)", "setting": "[3]", "value": "nontoxic; also recorded: no adverse effects; also recorded: Absence of adverse toxicity"}, {"measurement": "Cellular morphological alterations in promastigotes (in words)", "setting": "[4]", "value": "loss of flagella"}, {"measurement": "melting point", "value": "210 to 212", "unit": "°C"}]}
{"smiles": "CC1CCN(c2cc(Sc3nnc(-c4ccccc4)c(-c4ccccc4)n3)ncn2)CC1", "note": "[T7, 3-((6-(4-Methylpiperidin-1-yl)pyrimidin-4-yl)thio)-5,6-diphenyl-1,2,4-triazine]", "values": [{"measurement": "% Inhibition of L. donovani promastigotes", "setting": "[1]", "value": 99.89, "unit": "%"}, {"measurement": "inhibition at 100 µM", "setting": "[1]", "value": "> 90", "unit": "%"}, {"measurement": "IC50", "setting": "[2]", "value": 1.16, "unit": "µM"}, {"measurement": "Percentage reduction of parasites (amastigote)", "setting": "L. donovani amastigotes; 6.25 μM", "value": 56, "unit": "%"}, {"measurement": "Percentage reduction of parasites (amastigote)", "setting": "L. donovani amastigotes; 12.5 μM", "value": 62, "unit": "%"}, {"measurement": "Percentage reduction of parasites (amastigote)", "setting": "L. donovani amastigotes; 25 μM", "value": 66, "unit": "%"}, {"measurement": "Percentage reduction of parasites (amastigote)", "setting": "L. donovani amastigotes; 50 μM", "value": 70.6, "unit": "%"}, {"measurement": "Percentage reduction of parasites (amastigote)", "setting": "L. donovani amastigotes; 100 μM", "value": 72, "unit": "%"}, {"measurement": "Inhibitory activity against amastigotes (in words)", "setting": "L. donovani amastigotes", "value": "good inhibitory activity; also recorded: capable of inhibiting the growth"}, {"measurement": "Cellular morphological alterations in promastigotes (in words)", "setting": "[4]", "value": "loss of flagella"}, {"measurement": "melting point", "value": "250 to 252", "unit": "°C"}]}
